Assay results: patent publication US12662489B2 (Sitryx Therapeutics Limited, priority 2023, dated 2026)

What was measured:
[1] = target: T1, MTHFD1 recombinant human enzyme (Homo sapiens, UniProt P11586); assay: MTHFD1 inhibition assay (NAD(P)H-Glo luminescence); settings: MTHFD1 IC50, recombinant human enzyme 200 nM, NADP, band
T1 sequence (P11586 2-291 limits assumed): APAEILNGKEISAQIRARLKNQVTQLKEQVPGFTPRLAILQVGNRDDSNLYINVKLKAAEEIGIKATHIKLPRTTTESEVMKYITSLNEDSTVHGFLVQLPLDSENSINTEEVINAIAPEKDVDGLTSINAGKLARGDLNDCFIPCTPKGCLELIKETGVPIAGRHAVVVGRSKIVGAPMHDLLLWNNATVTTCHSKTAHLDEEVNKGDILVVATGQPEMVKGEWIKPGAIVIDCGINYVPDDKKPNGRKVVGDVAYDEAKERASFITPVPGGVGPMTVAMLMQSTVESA

[2] = target: T2, MTHFD2 recombinant human enzyme (Homo sapiens, UniProt P13995); assay: MTHFD2 inhibition assay (NAD(P)H-Glo luminescence); settings: for MTHFD1/MTHFD2 IC50 ratio: selectivity of MTHFD2 inhibition over MTHFD1, band
T2 sequence (P13995 36-350): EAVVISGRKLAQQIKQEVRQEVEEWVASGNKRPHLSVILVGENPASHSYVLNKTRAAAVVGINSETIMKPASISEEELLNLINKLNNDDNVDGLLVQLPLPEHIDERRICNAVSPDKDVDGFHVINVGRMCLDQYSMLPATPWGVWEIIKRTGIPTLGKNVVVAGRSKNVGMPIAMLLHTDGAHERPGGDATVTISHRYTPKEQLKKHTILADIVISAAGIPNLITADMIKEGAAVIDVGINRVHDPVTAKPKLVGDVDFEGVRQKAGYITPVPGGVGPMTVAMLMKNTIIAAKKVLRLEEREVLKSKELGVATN

| SMILES | IC50 [1] [µM] | IC50 [2] [µM] | MTHFD1/MTHFD2 IC50 ratio [2] |
| --- | --- | --- | --- |
| COC[C@H]1CN(c2cc(C)c3c4c(c(=O)oc3c2C)CN(C(=O)c2ccc(C(=O)NS(=O)(=O)N3CCCC3)c(OC3CC3)c2F)CC4)CCN1C [Example 212, (R)-2-cyclopropoxy-3-fluoro-4-(8-(3-(methoxymethyl)-4-methylpiperazin-1-yl)-7,10-dimethyl-5-oxo-1,3,4,5-tetrahydro-2H-chromeno[3,4-c]pyridine-3-carbonyl)-N-(pyrrolidin-1-ylsulfonyl)benzamide] | 0.01 to 0.1 | 0.001 to 0.01 | F (<3) |
| COC[C@H]1CN(c2cc(C)c3c4c(c(=O)oc3c2C)CN(C(=O)c2ccc(C(=O)NS(=O)(=O)N3C5CCC3CC5)c(OC3CC3)c2F)CC4)CCN1C [Example 213, (R)-N-((7-azabicyclo[2.2.1]heptan-7-yl)sulfonyl)-2-cyclopropoxy-3-fluoro-4-(8-(3-(methoxymethyl)-4-methylpiperazin-1-yl)-7,10-dimethyl-5-oxo-1,3,4,5-tetrahydro-2H-chromeno[3,4-c]pyridine-3-carbonyl)benzamide] | 0.01 to 0.1 | 0.001 to 0.01 | G (^ 3 to 9.0) |
| CCOc1c(C(=O)NS(=O)(=O)N2CC3CC3C2)ccc(C(=O)N2CCc3c(c(=O)oc4c(CC)c(N5CCN(C)[C@@H](COC)C5)ccc34)C2)c1F (stereo partly drawn) [Example 214, N-((3-azabicyclo[3.1.0]hexan-3-yl)sulfonyl)-2-ethoxy-4-(7-ethyl-8-((R)-3-(methoxymethyl)-4-methylpiperazin-1-yl)-5-oxo-1,3,4,5-tetrahydro-2H-chromeno[3,4-c]pyridine-3-carbonyl)-3-fluorobenzamide] | 0.01 to 0.1 | 0.01 to 0.1 | F (<3) |
| CCOc1c(C(=O)NS(=O)(=O)N2C3CCC2CC3)ccc(C(=O)N2CCc3c(c(=O)oc4c(CC)c(N5CCN(C)[C@@H](COC)C5)ccc34)C2)c1F [Example 215, (R)-N-((7-azabicyclo[2.2.1]heptan-7-yl)sulfonyl)-2-ethoxy-4-(7-ethyl-8-(3-(methoxymethyl)-4-methylpiperazin-1-yl)-5-oxo-1,3,4,5-tetrahydro-2H-chromeno[3,4-c]pyridine-3-carbonyl)-3-fluorobenzamide] | 0.01 to 0.1 | 0.1 to 1 | F (<3) |
| CCOc1cc(C(=O)N2CCc3c(c(=O)oc4c(C)c(N5CCN(C)[C@@H](COC)C5)cc(C)c34)C2)c(F)cc1C(=O)NS(=O)(=O)N1CC2(CCC2)C1 [Example 220, (R)-N-((2-azaspiro[3.3]heptan-2-yl)sulfonyl)-2-ethoxy-5-fluoro-4-(8-(3-(methoxymethyl)-4-methylpiperazin-1-yl)-7,10-dimethyl-5-oxo-1,3,4,5-tetrahydro-2H-chromeno[3,4-c]pyridine-3-carbonyl)benzamide] | 0.1 to 1 | 0.01 to 0.1 | H (>9.0 to 30) |
| COC[C@H]1CN(c2cc(C)c3c4c(c(=O)oc3c2C)CN(C(=O)c2ccc(C(=O)NS(=O)(=O)N3CCCC3)c(OCCC(F)(F)F)c2F)CC4)CCN1C [Example 222, (R)-3-fluoro-4-(8-(3-(methoxymethyl)-4-methylpiperazin-1-yl)-7,10-dimethyl-5-oxo-1,3,4,5-tetrahydro-2H-chromeno[3,4-c]pyridine-3-carbonyl)-N-(pyrrolidin-1-ylsulfonyl)-2-(3,3,3-trifluoropropoxy)benzamide] | 0.01 to 0.1 | 0.001 to 0.01 | F (<3) |
| CCOc1cc(C(=O)N2CCc3c(c(=O)oc4c(C)c(N5CCN(C)[C@@H](COC)C5)cc(C)c34)C2)ccc1C(=O)NS(=O)(=O)N1C2CCC1CC2 [Example 227, (R)-N-((7-azabicyclo[2.2.1]heptan-7-yl)sulfonyl)-2-ethoxy-4-(8-(3-(methoxymethyl)-4-methylpiperazin-1-yl)-7,10-dimethyl-5-oxo-1,3,4,5-tetrahydro-2H-chromeno[3,4-c]pyridine-3-carbonyl)benzamide] | 0.1 to 1 | 0.001 to 0.01 | H (>9.0 to 30) |
